The source made the active and inactive calls. The rule behind the calls is not given here.
Experiments:
[1] = Growth inhibition of human MDA231 cells assessed as ATP level after 4 days; type: functional; conditions: MDA-MB-231, 96 h
PC-3 = test: Growth inhibition of human PC3 cells assessed as ATP level after 4 days; type: functional, cell-based
HCT-116 = test: Growth inhibition of human HCT116 cells assessed as ATP level after 4 days; type: functional; conditions: HCT-116, 96 h
NSCLC = test: Growth inhibition of human NSCLC cells assessed as ATP level after 4 days; type: functional, cell-based
K562 = test: Growth inhibition of human K562 cells assessed as ATP level after 4 days; type: functional; conditions: K562, 96 h
NCI-N87 = test: Growth inhibition of human NCI-N87 cells assessed as ATP level after 4 days; type: functional; conditions: NCI-N87, 96 h
BT-474 = test: Growth inhibition of human BT474 cells assessed as ATP level after 4 days; type: functional; conditions: BT-474, 96 h
[2] = target: Heat shock protein HSP 90-alpha (Homo sapiens) (UniProt P07900)
Homo sapiens = species: Homo sapiens; test: Growth inhibition of human tarceva and iressa-resistant […] cells assessed as ATP level after 4 days; type: functional
MV4-11 = test: Growth inhibition of human MV4-11 cells assessed as ATP level after 4 days; type: functional; conditions: MV4-11, 96 h
MDA-MB-468 = test: Growth inhibition of human MDA-MB-468 cells assessed as ATP level after 4 days; type: functional; conditions: MDA-MB-468, 96 h
[3] = target: Heat shock protein HSP 90-alpha (Homo sapiens) (UniProt P07900); test: Binding affinity to human HSP90alpha at < 10 uM
[4] = Aqueous solubility of the compound; type: physicochemical
Mus musculus [5] = test: Hepatotoxicity in ICR-SCID mouse liver assessed as alanine aminotransferase level at 50 mg/kg administered 3 times per week for 4 weeks measured after 24 hrs of last dose relative to untreated control; type: toxicity, organism-based; parameters: dose 50 mg/kg; conditions: in vivo
Mus musculus [6] = test: Hepatotoxicity in ICR-SCID mouse liver assessed as aspartate aminotransferase level at 100 mg/kg administered 3 times per week for 4 weeks measured after 24 hrs of last dose relative to untreated control; type: toxicity, organism-based; parameters: dose 100 mg/kg; conditions: in vivo
Mus musculus [7] = test: Hepatotoxicity in ICR-SCID mouse liver assessed as aspartate aminotransferase level at 50 mg/kg administered 3 times per week for 4 weeks measured after 24 hrs of last dose relative to untreated control; type: toxicity, organism-based; parameters: dose 50 mg/kg; conditions: in vivo
Mus musculus [8] = test: Hepatotoxicity in ICR-SCID mouse liver assessed as alkaline phosphatase level at 50 mg/kg administered 3 times per week for 4 weeks measured after 24 hrs of last dose relative to untreated control; type: toxicity, organism-based; parameters: dose 50 mg/kg; conditions: in vivo
Mus musculus [9] = test: Toxicity in ICR-SCID mouse kidney assessed as creatinine level at 75 mg/kg administered 3 times per week for 4 weeks measured after 24 hrs of last dose relative to untreated control; type: organism-based; parameters: dose 75 mg/kg; conditions: in vivo
Mus musculus [10] = test: Toxicity in ICR-SCID mouse heart assessed as […] level at 50 mg/kg administered 3 times per week for 4 weeks measured after 24 hrs of last dose relative to untreated control; type: organism-based; parameters: dose 50 mg/kg; conditions: in vivo
Mus musculus [11] = test: Toxicity in ICR-SCID mouse heart assessed as cholesterol level at 50 mg/kg administered 3 times per week for 4 weeks measured after 24 hrs of last dose relative to untreated control; type: organism-based; parameters: dose 50 mg/kg; conditions: in vivo
Mus musculus [12] = test: Hepatotoxicity in ICR-SCID mouse liver assessed as bilirubin level at 75 mg/kg administered 3 times per week for 4 weeks measured after 24 hrs of last dose relative to untreated control; type: toxicity, organism-based; parameters: dose 75 mg/kg; conditions: in vivo
[13] = Growth inhibition of human tarceva and iressa-resistant HCC827 cells assessed as ATP level after 4 days; type: functional; conditions: HCC827, 96 h
Mus musculus [14] = test: Hepatotoxicity in ICR-SCID mouse liver assessed as alanine aminotransferase level at 100 mg/kg administered 3 times per week for 4 weeks measured after 24 hrs of last dose relative to untreated control; type: toxicity, organism-based; parameters: dose 100 mg/kg; conditions: in vivo
NCI-H1975 = test: Growth inhibition of human tarceva and iressa-resistant NCI-H1975 cells assessed as ATP level after 4 days; type: functional; conditions: NCI-H1975, 96 h
Mus musculus [15] = test: Hepatotoxicity in ICR-SCID mouse liver assessed as bilirubin level at 50 mg/kg administered 3 times per week for 4 weeks measured after 24 hrs of last dose relative to untreated control; type: toxicity, organism-based; parameters: dose 50 mg/kg; conditions: in vivo
Mus musculus [16] = test: Hepatotoxicity in ICR-SCID mouse liver assessed as aspartate aminotransferase level at 75 mg/kg administered 3 times per week for 4 weeks measured after 24 hrs of last dose relative to untreated control; type: toxicity, organism-based; parameters: dose 75 mg/kg; conditions: in vivo
Mus musculus [17] = test: Hepatotoxicity in ICR-SCID mouse liver assessed as alkaline phosphatase level at 75 mg/kg administered 3 times per week for 4 weeks measured after 24 hrs of last dose relative to untreated control; type: toxicity, organism-based; parameters: dose 75 mg/kg; conditions: in vivo
Mus musculus [18] = test: Hepatotoxicity in ICR-SCID mouse liver assessed as alanine aminotransferase level at 75 mg/kg administered 3 times per week for 4 weeks measured after 24 hrs of last dose relative to untreated control; type: toxicity, organism-based; parameters: dose 75 mg/kg; conditions: in vivo
Mus musculus [19] = test: Toxicity in ICR-SCID mouse kidney assessed as creatinine level at 50 mg/kg administered 3 times per week for 4 weeks measured after 24 hrs of last dose relative to untreated control; type: organism-based; parameters: dose 50 mg/kg; conditions: in vivo
Mus musculus [20] = test: Toxicity in ICR-SCID mouse heart assessed as […] level at 75 mg/kg administered 3 times per week for 4 weeks measured after 24 hrs of last dose relative to untreated control; type: organism-based; parameters: dose 75 mg/kg; conditions: in vivo
Mus musculus [21] = test: Hepatotoxicity in ICR-SCID mouse liver assessed as alkaline phosphatase level at 100 mg/kg administered 3 times per week for 4 weeks measured after 24 hrs of last dose relative to untreated control; type: toxicity, organism-based; parameters: dose 100 mg/kg; conditions: in vivo
Mus musculus [22] = test: Hepatotoxicity in ICR-SCID mouse liver assessed as bilirubin level at 100 mg/kg administered 3 times per week for 4 weeks measured after 24 hrs of last dose relative to untreated control; type: toxicity, organism-based; parameters: dose 100 mg/kg; conditions: in vivo
Mus musculus [23] = test: Toxicity in ICR-SCID mouse heart assessed as cholesterol level at 75 mg/kg administered 3 times per week for 4 weeks measured after 24 hrs of last dose relative to untreated control; type: organism-based; parameters: dose 75 mg/kg; conditions: in vivo
[24] = Drug level in mouse liver at 4 mg/kg, iv; type: ADME, organism-based; parameters: dose 4 mg/kg, route intravenous
Liver = test: Drug level in mouse liver at 30 mg/kg, po; type: ADME, organism-based; parameters: dose 30 mg/kg, route oral; conditions: in vivo

Structure (SMILES) | GI50 (K562) | GI50 (BT-474) | GI50 [2] | GI50 (MV4-11) | GI50 (MDA-MB-468) | Activity [3] | solubility [4] | GI50 (NCI-N87) | further results
O=C1OCC/C=C/CC/C=C/C(=N/OCC(=O)N2CCCCC2)Cc2cc(OP(=O)([O-])[O-])cc(O)c21.[Na+].[Na+] |  |  |  |  |  | inactive | ≥ 80 mg/mL |  | 
C=CCNC1=C2C[C@@H](C)C[C@H](OC)[C@H](O)[C@@H](C)/C=C(\C)[C@H](OC(N)=O)[C@@H](OC)/C=C\C=C(/C)C(=O)NC(=CC1=O)C2=O (stereo in doubt) [TANESPIMYCIN] | 48 nM | 5 nM |  | 11 nM | 780 nM |  |  | 1 nM | Activity (Mus musculus [5]): 175.3 U/L; Activity (Mus musculus [6]): 10611.3 U/L; Activity (Mus musculus [7]): 216 U/L; Activity (Mus musculus [8]): 128.3 U/L; Activity (Mus musculus [9]): 0.2 mg/dL; Activity (Mus musculus [10]): 64.7 U/L; Activity (Mus musculus [11]): 105.3 mg/dL; Activity (Mus musculus [12]): 0.25 mg/dL; GI50 [13]: 56 nM; Activity (Mus musculus [14]): 11134 U/L; GI50 (NCI-H1975): 35 nM; Activity (Mus musculus [15]): 0.2 mg/dL; Activity (Mus musculus [16]): 1058.3 U/L; Activity (Mus musculus [17]): 143.3 U/L; Activity (Mus musculus [18]): 755.7 U/L; Activity (Mus musculus [19]): 0.2 mg/dL; Activity (Mus musculus [20]): 166 U/L; Activity (Mus musculus [21]): 131.3 U/L; Activity (Mus musculus [22]): 1.1 mg/dL; Activity (Mus musculus [23]): 97.5 mg/dL
C[C@@H]1C/C=C/CC/C=C/C(=N/OCC(=O)N2CCCCC2)Cc2cc(OP(=O)([O-])[O-])cc(O)c2C(=O)O1.[Na+].[Na+] |  |  |  |  |  | inactive | ≥ 80 mg/mL |  | 
C[C@@H]1C/C=C/CC/C=C/C(=N/OCC(=O)N2CCCCC2)Cc2cc(O)cc(O)c2C(=O)O1 [POCHOXIME C] | 7 nM | 6 nM | 18 nM | 3 nM | 6 nM |  |  | 2 nM | GI50 [1]: 6 nM; Activity (PC-3): Active; Activity (NSCLC): Active; Activity (Homo sapiens): Active
C[C@@H]1C/C=C/CC/C=C/C(=N/OCC(=O)N2CCCCC2)Cc2cc(OP(=O)([O-])[O-])cc(OP(=O)([O-])[O-])c2C(=O)O1.[Na+].[Na+].[Na+].[Na+] |  |  |  |  |  | inactive | > 100 mg/mL |  | Cmax [24]: 3840 ng/g; Drug uptake (Liver): 12469 ng/g
O=C1OCC/C=C/CC/C=C/C(=N/OCC(=O)N2CCCCC2)Cc2c(Cl)c(OP(=O)([O-])[O-])cc(O)c21.[Na+].[Na+] |  | 14 nM | > 10000 nM |  | 37 nM | inactive | ≥ 80 mg/mL | 19 nM | 

More lines, main results first:

GI50 (K562) | GI50 (BT-474) | GI50 [2] | GI50 (MV4-11) | GI50 (MDA-MB-468) | Activity [3] | solubility [4] | Structure (SMILES) | GI50 (NCI-N87) | further results
4 nM | 2 nM | 15 nM | 2 nM | 2 nM |  |  | O=C1OCC/C=C/CC/C=C/C(=N/OCC(=O)N2CCCCC2)Cc2cc(O)cc(O)c21 [POCHOXIME B] | 1 nM | GI50 [1]: 2 nM; Activity (PC-3): Active; GI50 (HCT-116): 11 nM; Activity (NSCLC): Active; Activity (Homo sapiens): Active
 |  |  |  |  | inactive | ≥ 80 mg/mL | O=C1OCC/C=C/CC/C=C/C(=N/OCC(=O)N2CCCCC2)Cc2cc(OCOP(=O)([O-])[O-])cc(O)c21.[Na+].[Na+] |  | 
 |  |  |  |  | inactive | ≥ 80 mg/mL | O=C1OCC/C=C/CC/C=C/C(=N/OCC(=O)N2CCCCC2)Cc2c(Cl)c(O)cc(OP(=O)([O-])[O-])c21.[Na+].[Na+] |  | 

From ChEMBL document CHEMBL1153018, “Synthesis of pochoxime prodrugs as potent HSP90 inhibitors” (Bioorg Med Chem Lett, 2009)
